According to ChEMBL document CHEMBL4680379, “Structure-based Discovery of Cell-Potent Peptidomimetic Inhibitors for Protein N-Terminal Methyltransferase 1” (ACS Med Chem Lett, 2021):
pIC50: −log10 of the molar value. The source made the active and inactive calls. No cut-off for these calls is given here.

What was measured:
[1] = molecular target: T1, N-terminal Xaa-Pro-Lys N-methyltransferase 1 (Homo sapiens, UniProt Q9BV86); assay: Inhibition of recombinant human N-terminal His6-tagged NTMT1 (1 to 222 residues) expressed in Escherichia coli BL21-CodonPlus(DE3)-RIL using GPKRIA peptide and SAM as substrate pre-incubated for 10 mins in presence of SAM followed by substrate addition by SAHH coupled fluorescence assay
T1 sequence (Q9BV86 whole entry): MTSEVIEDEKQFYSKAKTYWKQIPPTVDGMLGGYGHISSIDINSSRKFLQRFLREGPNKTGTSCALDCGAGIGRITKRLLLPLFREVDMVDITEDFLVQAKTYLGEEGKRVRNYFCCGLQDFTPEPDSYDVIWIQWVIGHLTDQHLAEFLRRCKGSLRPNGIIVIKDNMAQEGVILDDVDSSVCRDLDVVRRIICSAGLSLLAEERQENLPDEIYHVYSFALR

[2] = molecular target: T2, N-terminal Xaa-Pro-Lys N-methyltransferase 1 (Homo sapiens) (UniProt Q9BV86); assay: Inhibition of NTMT1 in human HCT116 cells assessed as decrease in me3-SPK level at 100 uM incubated for 3 days by Western blot analysis relative to control; type: cell-based; conditions: HCT-116, time 3.0 day
T2 sequence (whole entry): T1 sequence (Q9BV86 whole entry)

[3] = molecular target: T2, N-terminal Xaa-Pro-Lys N-methyltransferase 1 (Homo sapiens); assay: Inhibition of NTMT1 in human HCT116 cells assessed as decrease in me3-SPK level at 300 uM incubated for 3 days by Western blot analysis relative to control; type: cell-based; conditions: HCT-116, time 3.0 day
[4] = molecular target: T2, N-terminal Xaa-Pro-Lys N-methyltransferase 1 (Homo sapiens); assay: Inhibition of NTMT1 in human HCT116 cells assessed as decrease in me3-SPK level at 1 mM incubated for 3 days by Western blot analysis relative to control; type: cell-based; conditions: HCT-116, time 3.0 day
Trypsin = Trypsin (Homo sapiens, UniProt P07477+P07478+P35030); assay: Stability of compound assessed as trypsin (unknown origin) mediated compound hydrolysis at 10 uM incubated for 1 hr by MALDI-MS analysis; type: ADME, protein assay
HT-29 [5] = assay: Cytotoxicity against human HT29 cells assessed as reduction in cell viability up to 1 mM incubated for 48 hrs by resazurin-dye based alamar blue assay; conditions: ht-29, 48 h
Homo sapiens [6] = species on record: Homo sapiens; assay: Selectivity for recombinant human N-terminal His6-tagged NTMT1 (1 to 222 residues) expressed in Escherichia coli BL21-CodonPlus(DE3)-RIL over PRMT3 (unknown origin)
Homo sapiens [7] = species on record: Homo sapiens; assay: Selectivity for recombinant human N-terminal His6-tagged NTMT1 (1 to 222 residues) expressed in Escherichia coli BL21-CodonPlus(DE3)-RIL over SAHH (unknown origin)
Homo sapiens [8] = species on record: Homo sapiens; assay: Selectivity for recombinant human N-terminal His6-tagged NTMT1 (1 to 222 residues) expressed in Escherichia coli BL21-CodonPlus(DE3)-RIL over His-tagged SETD7 (unknown origin)
HCT-116 [9] = assay: Cytotoxicity against human HCT116 cells assessed as reduction in cell viability up to 1 mM incubated for 24 hrs by resazurin-dye based alamar blue assay; conditions: hct-116, 24 h
HCT-116 [10] = assay: Cytotoxicity against human HCT116 cells assessed as reduction in cell viability up to 1 mM incubated for 72 hrs by resazurin-dye based alamar blue assay; conditions: hct-116, 72 h
Homo sapiens [11] = species on record: Homo sapiens; assay: Selectivity for recombinant human N-terminal His6-tagged NTMT1 (1 to 222 residues) expressed in Escherichia coli BL21-CodonPlus(DE3)-RIL over PRMT1 (unknown origin)
[12] = molecular target: T1, N-terminal Xaa-Pro-Lys N-methyltransferase 1; assay: Inhibition of NTMT1 in human HT29 cells assessed as decrease in me3-RCC1 level incubated for 3 days by Western blot analysis; type: cell-based, HT-29
[13] = molecular target: T3, Histone-lysine N-methyltransferase SETD7 (Homo sapiens) (UniProt Q8WTS6); assay: Inhibition of His-tagged SETD7 (unknown origin) at 100 uM using H3-21 peptide as substrate preincubated for 10 mins in presence of SAM followed by substrate addition by SAHH-coupled fluorescence assay relative to control
T3 sequence (whole entry): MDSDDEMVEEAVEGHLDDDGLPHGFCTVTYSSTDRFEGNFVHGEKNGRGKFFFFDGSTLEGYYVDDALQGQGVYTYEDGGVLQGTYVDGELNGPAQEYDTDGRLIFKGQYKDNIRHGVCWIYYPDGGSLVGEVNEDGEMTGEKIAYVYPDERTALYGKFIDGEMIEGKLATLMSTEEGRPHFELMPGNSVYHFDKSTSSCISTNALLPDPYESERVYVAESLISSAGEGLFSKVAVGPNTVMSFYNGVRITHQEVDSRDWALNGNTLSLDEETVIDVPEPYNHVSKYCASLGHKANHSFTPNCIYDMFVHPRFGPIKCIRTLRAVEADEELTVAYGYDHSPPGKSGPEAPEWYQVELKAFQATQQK

[14] = Selectivity for recombinant human N-terminal His6-tagged NTMT1 (1 to 222 residues) expressed in Escherichia coli BL21-CodonPlus(DE3)-RIL over Trypanosoma brucei N-terminal His6-tagged PRMT7 expressed in Escherichia coli BL21-CodonPlus(DE3)-RIL
[15] = molecular target: T2, N-terminal Xaa-Pro-Lys N-methyltransferase 1 (Homo sapiens); assay: Inhibition of NTMT1 in human HCT116 cells assessed as decrease in me3-RCC1 level at 100 uM incubated for 3 days by Western blot analysis; type: cell-based; conditions: HCT-116, time 3.0 day
[16] = molecular target: T1, N-terminal Xaa-Pro-Lys N-methyltransferase 1; assay: Inhibition of NTMT1 in human HCT116 cells assessed as decrease in me3-RCC1 level incubated for 3 days by Western blot analysis; type: cell-based, HCT-116
HCT-116 [17] = assay: Cytotoxicity against human HCT116 cells assessed as reduction in cell viability up to 1 mM incubated for 48 hrs by resazurin-dye based alamar blue assay; conditions: hct-116, 48 h
Homo sapiens [18] = species on record: Homo sapiens; assay: Selectivity for recombinant human N-terminal His6-tagged NTMT1 (1 to 222 residues) expressed in Escherichia coli BL21-CodonPlus(DE3)-RIL over human His-tagged G9a (913 to 1193 residues) expressed in Escherichia coli BL21-CodonPlus(DE3)-RIL
Trypanosoma brucei = assay: Inhibition of Trypanosoma brucei N-terminal His6-tagged PRMT7 expressed in Escherichia coli BL21-CodonPlus(DE3)-RIL at 100 uM using H4-21 peptide as substrate preincubated for 10 mins in presence of SAM followed by substrate addition by SAHH-coupled fluorescence assay relative to control
[19] = molecular target: T2, N-terminal Xaa-Pro-Lys N-methyltransferase 1 (Homo sapiens); assay: Inhibition of NTMT1 in human HT29 cells assessed as decrease in me3-RCC1 level at 100 uM incubated for 3 days by Western blot analysis; type: cell-based; conditions: HT-29, time 3.0 day
[20] = molecular target: Protein arginine N-methyltransferase 1 (Homo sapiens) (UniProt Q99873); assay: Inhibition of PRMT1 (unknown origin) at 100 uM using H4-21 peptide as substrate preincubated for 10 mins in presence of SAM followed by substrate addition by SAHH-coupled fluorescence assay relative to control
Protein arginine N-methyltransferase 1 (Homo sapiens), sequence (Q99873 whole entry, looked up): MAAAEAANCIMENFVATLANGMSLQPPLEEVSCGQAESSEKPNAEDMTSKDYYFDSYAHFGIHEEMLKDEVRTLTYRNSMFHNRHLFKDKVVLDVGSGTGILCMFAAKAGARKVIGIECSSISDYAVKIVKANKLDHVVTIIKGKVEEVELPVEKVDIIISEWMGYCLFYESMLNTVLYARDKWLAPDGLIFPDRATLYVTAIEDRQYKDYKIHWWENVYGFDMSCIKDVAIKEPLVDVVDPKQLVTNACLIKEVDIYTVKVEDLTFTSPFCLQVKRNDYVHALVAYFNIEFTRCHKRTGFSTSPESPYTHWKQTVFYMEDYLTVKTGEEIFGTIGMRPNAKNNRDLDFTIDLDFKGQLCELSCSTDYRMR

[21] = molecular target: Protein arginine N-methyltransferase 3 (Homo sapiens) (UniProt O60678); assay: Inhibition of PRMT3 (unknown origin) at 100 uM relative to control
Protein arginine N-methyltransferase 3 (Homo sapiens), sequence (O60678 2-531 limits assumed): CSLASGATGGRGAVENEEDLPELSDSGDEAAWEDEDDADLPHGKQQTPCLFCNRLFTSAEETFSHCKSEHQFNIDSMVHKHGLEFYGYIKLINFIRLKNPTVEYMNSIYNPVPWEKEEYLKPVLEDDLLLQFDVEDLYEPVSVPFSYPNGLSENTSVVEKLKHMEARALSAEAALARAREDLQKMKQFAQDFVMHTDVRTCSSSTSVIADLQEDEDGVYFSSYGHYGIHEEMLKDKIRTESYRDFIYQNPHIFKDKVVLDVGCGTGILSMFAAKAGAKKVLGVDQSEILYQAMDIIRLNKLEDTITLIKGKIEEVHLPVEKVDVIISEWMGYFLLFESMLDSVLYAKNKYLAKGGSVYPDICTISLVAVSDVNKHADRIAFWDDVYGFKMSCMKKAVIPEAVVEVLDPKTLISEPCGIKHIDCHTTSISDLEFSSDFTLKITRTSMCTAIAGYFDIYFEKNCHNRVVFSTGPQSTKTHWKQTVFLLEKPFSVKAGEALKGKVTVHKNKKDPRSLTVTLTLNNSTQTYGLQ

[22] = molecular target: Adenosylhomocysteinase (Homo sapiens) (UniProt P23526); assay: Inhibition of SAHH (unknown origin) at 100 uM relative to control
Adenosylhomocysteinase (Homo sapiens), sequence (P23526 2-432 limits assumed): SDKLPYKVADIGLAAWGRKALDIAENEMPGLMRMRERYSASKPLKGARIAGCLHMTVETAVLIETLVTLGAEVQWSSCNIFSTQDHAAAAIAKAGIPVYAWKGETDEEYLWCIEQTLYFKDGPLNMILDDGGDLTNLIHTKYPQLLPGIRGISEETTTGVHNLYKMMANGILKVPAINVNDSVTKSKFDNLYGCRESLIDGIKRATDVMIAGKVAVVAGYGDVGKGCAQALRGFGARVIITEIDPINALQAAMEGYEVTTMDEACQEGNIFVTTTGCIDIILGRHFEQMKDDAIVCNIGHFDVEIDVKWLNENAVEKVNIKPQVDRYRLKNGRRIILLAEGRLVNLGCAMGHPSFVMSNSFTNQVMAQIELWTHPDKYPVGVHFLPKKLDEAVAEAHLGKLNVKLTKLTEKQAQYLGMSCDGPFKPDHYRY

[23] = molecular target: T4, Histone-lysine N-methyltransferase EHMT2 (Homo sapiens) (UniProt Q96KQ7); assay: Inhibition of human His-tagged G9a (913 to 1193 residues) expressed in Escherichia coli BL21-CodonPlus(DE3)-RIL at 100 uM using H3-21 peptide as substrate preincubated for 10 mins in presence of SAM followed by substrate addition by SAHH-coupled fluorescence assay relative to control
T4 sequence (whole entry): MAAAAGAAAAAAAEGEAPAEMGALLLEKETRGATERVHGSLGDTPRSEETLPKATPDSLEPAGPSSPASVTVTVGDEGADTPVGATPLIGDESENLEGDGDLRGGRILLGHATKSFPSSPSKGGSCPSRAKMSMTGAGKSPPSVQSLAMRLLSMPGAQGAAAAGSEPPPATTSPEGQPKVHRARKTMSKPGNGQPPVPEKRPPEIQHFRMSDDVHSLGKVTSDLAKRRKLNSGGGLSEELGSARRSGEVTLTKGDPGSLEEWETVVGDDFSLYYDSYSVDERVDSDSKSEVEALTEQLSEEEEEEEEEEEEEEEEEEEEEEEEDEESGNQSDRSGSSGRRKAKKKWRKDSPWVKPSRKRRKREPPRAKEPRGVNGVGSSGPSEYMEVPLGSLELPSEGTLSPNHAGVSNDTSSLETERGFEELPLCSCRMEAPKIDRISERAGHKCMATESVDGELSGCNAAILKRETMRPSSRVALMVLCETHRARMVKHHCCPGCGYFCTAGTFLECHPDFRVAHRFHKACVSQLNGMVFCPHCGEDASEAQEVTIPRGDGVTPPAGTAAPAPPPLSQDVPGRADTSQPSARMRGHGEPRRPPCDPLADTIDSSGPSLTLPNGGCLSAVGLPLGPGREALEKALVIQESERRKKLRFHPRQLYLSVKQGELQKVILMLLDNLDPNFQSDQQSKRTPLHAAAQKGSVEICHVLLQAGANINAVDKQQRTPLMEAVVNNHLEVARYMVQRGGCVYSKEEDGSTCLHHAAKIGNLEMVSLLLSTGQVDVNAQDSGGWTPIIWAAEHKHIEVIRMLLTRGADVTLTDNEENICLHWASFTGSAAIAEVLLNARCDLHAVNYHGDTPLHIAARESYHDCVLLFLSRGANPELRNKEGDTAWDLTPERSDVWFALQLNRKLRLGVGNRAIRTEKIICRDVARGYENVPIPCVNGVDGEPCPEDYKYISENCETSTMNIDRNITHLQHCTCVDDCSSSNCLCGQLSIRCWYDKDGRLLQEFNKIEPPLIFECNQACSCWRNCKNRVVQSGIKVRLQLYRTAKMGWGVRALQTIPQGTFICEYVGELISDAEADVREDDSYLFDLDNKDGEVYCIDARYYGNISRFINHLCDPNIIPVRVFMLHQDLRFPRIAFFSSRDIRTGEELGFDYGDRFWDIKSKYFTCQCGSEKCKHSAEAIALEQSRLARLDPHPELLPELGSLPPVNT

HT-29 [24] = assay: Cytotoxicity against human HT29 cells assessed as reduction in cell viability up to 1 mM incubated for 24 hrs by resazurin-dye based alamar blue assay; conditions: ht-29, 24 h
HT-29 [25] = assay: Cytotoxicity against human HT29 cells assessed as reduction in cell viability up to 1 mM incubated for 72 hrs by resazurin-dye based alamar blue assay; conditions: ht-29, 72 h

NCCCC[C@H](NC(=O)[C@@H]1CCCN1C(=O)Cc1cccc2ccccc12)C(=O)N[C@@H](CCC(=O)O)C(N)=O gave a pIC50 [1] of 5.38.
For N=C(N)NCCC[C@H](NC(=O)[C@H](CCCCN)NC(=O)[C@@H]1CCCN1C(=O)Cc1cccc2ncccc12)C(N)=O, the pIC50 [1] was less than 4.00.
Compound NCCCC[C@H](NC(=O)[C@@H]1CCCN1C(=O)Cc1cccc2ccccc12)C(=O)Nc1ccccc1 has a pIC50 [1] of 5.96, an inhibition [2] of 0% and an inhibition [3] of 55%. For the same compound, the inhibition [4] was 79%.
For C[C@@H](C(N)=O)N(C)C(=O)[C@H](CCCCN)NC(=O)[C@@H]1CCCN1C(=O)Cc1cccc2ccccc12, the Stabilty (Trypsin) was “Stable”, the pIC50 [1] was 6.24 and the inhibition [2] was 0%. It also gave an inhibition [3] of 3% and an inhibition [4] of 70%.
In the case of NCCCC[C@H](NC(=O)[C@@H]1CCCN1C(=O)Cc1cccc2ccccc12)C(=O)Nc1ccccc1C(N)=O, the Activity (HT-29 [5]) was “Non-Toxic”, the Selectivity ratio (Homo sapiens [6]) was greater than 300 and the Selectivity ratio (Homo sapiens [7]) was greater than 300. The Selectivity ratio (Homo sapiens [8]) was greater than 300, the Activity (HCT-116 [9]) was “Non-Toxic” and the Activity (HCT-116 [10]) was “Non-Toxic”. For the same compound, the Selectivity ratio (Homo sapiens [11]) was greater than 300, the pIC50 [12] was 4.52 and the inhibition [13] was less than 50%. For the same compound, the Selectivity ratio [14] was greater than 300, the inhibition [15] was “Active” and the pIC50 [16] was 4.00. The Activity (HCT-116 [17]) was “Non-Toxic”, the Selectivity ratio (Homo sapiens [18]) was greater than 300 and the inhibition (Trypanosoma brucei) was less than 50%. For the same compound, the inhibition [19] was “Active”, the inhibition [20] was less than 50% and the inhibition [21] was less than 50%. For the same compound, the inhibition [22] was less than 50%, the inhibition [2] was 61% and the inhibition [3] was 90%. The inhibition [4] was 100%, the inhibition [23] was less than 50% and the Activity (HT-29 [24]) was “Non-Toxic”. For the same compound, the Activity (HT-29 [25]) was “Non-Toxic”.
